Results as given in patent US20160031935A1, “SMALL MOLECULE MODULATORS OF PCSK9 AND METHODS OF USE THEREOF” (ADAERATA, LIMITED PARTNERSHIP, priority 2013, published 2016).

What was measured:
WT PCSK9(+V5) = biological target: T1, WT PCSK9(+V5) (Homo sapiens, UniProt Q8NBP7); assay: PCSK9 secretion assay: PCSK9 in media and cells by ELISA (media/cell ratio); format: cell-based; settings: 10 μM; HepG2 cells stably expressing WT PCSK9(+V5), 24 h
T1 construct: expressed in transfected cells
Experimental: In 12-well plates (Greiner BioOne™), HepG2 cells stably expressing PCSK9(+V5) were seeded at a density of 1×10^6/well in complete media and incubated for 20 hours, at 37° C. Cells were rinsed once with 2 ml/well of D-PBS (+Calcium, +Magnesium) (Wisent) followed by addition of 0.5 ml/well incubation media (+0.07% BSA) containing the inhibitory compounds at various concentrations (11, 33, 100 μM) or DMSO control (0.4% final) and overnight (24 hours) incubation. 24 hours-conditioned media was collected, centrifuged at 130×g for 5 minutes to remove cell debris, and the supernatant removed for PCSK9 quantification by ELISA (100 μl of 1:30 dilution). Cells were washed once with ice-cold D-PBS (+Calcium, +Magnesium) (Wisent), then lysed with 250 ul/well of radioimmunoprecipitation assay buffer (RIPA) (50 mM Tris-HCl, pH 7.8, 150 mM NaCl, 1% Nonident P-40, 0.5% sodium deoxycholate, 0.1% SDS) containing a mixture of protease inhibitors (Roche Applied Science) for 30 min on ice, and pelleted at 11,300×g for 5 minutes. Supernatant was removed for cellular PCSK9 quantification by ELISA (100 μl of 1:20 dilution) and total protein determination by the Bio-Rad™ DC Protein assay (Bio-Rad) (4 μl cell lysate in duplicate) (Dubuc G, Tremblay M, Pare G, Jacques H, Hamelin J, Benjannet S, Boulet L, Genest J, Bernier L, Seidah N G, Davignon J. 2010. A new method for measurement of total plasma PCSK9: clinical applications. J Lipid Res. 51:140-149). The ratio of PCSK9 concentration of media (M) over cells (C) was determined and compounds which decreased M/C by >30% were considered active.
HepG2 cells stably expressing WT PCSK9(+V5) were incubated overnight (24 hours) in the absence (DMSO) or presence of 10 μM, 100 μM or increasing concentrations (11, 33, 100 μM) of a tested compound. 24 hours-conditioned media was collected, centrifuged, and the supernatant removed for PCSK9 quantification by ELISA (100 μl of 1:30 dilution). Cells were lysed with 250 ul/well of radioimmunoprecipitation assay buffer (RIPA) (50 mM Tris-HCl, pH 7.8, 150 mM NaCl, 1% Nonident P-40, 0.5% sodium deoxycholate, 0.1% SDS) containing a mixture of protease inhibitors (Roche Applied Science), and pelleted at 11,300×g for 5 minutes. Supernatant was removed for cellular PCSK9 quantification by ELISA (100 μl of 1:20 dilution) and total protein determination by the Bio-Rad DC Protein assay (Bio-Rad) (Dubuc G, Tremblay M, Pare G, Jacques H, Hamelin J, Benjannet S, Boulet L, Genest J, Bernier L, Seidah N G, Davignon J. 2010. A new method for measurement of total plasma PCSK9: clinical applications. J Lipid Res. 51:140-149). Over 165 compounds were subjected to a first screen at 100 μM by PCSK9 secretion assay.

HepG2 cells = assay: Cell viability assay (cell density during the PCSK9 secretion assay); format: cell-based, human; settings: 33 μM
Experimental: For the cell viability assay, the cell density of HepG2 cells was measured in the presence of 33 μM of compounds or in the presence of DMSO (control) during the PCSK9 secretion assay described in Example 92. Table II below presents compounds with a low toxicity at 33.3 μM or less.

T1 sequence (Q8NBP7 153-692): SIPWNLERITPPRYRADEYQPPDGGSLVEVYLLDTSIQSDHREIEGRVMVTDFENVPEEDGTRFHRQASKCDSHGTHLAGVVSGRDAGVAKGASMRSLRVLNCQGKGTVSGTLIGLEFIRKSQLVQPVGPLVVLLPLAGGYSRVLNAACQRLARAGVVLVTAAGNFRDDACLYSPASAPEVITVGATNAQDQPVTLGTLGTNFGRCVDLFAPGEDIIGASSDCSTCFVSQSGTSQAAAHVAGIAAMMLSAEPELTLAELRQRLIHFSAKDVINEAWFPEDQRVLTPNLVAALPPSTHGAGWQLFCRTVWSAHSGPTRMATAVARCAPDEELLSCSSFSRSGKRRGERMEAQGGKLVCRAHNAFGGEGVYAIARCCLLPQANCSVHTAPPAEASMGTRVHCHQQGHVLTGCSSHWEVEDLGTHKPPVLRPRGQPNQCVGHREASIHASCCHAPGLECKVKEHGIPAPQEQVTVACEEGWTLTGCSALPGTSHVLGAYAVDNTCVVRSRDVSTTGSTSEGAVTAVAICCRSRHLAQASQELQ

Row | Compound | Secretion Inhibition (% Activity) (WT PCSK9(+V5)) | Cell viability (% DMSO Cnt) (HepG2 cells)
1 | CCCCCCCCCC(=O)N[C@H](C(=O)N[C@@H](Cc1ccccc1)C(=O)N[C@H](C)C(=O)N[C@@H](CCC(N)=O)C(O)C(F)(F)F)C(C)C (single isomer, unassigned) [Example 60] | 73% | 80 % DMSO Cnt
2 | CC(C)[C@H](NC(=O)c1ccc(-c2ccccc2)cc1)C(=O)N[C@@H](Cc1ccccc1)C(=O)NC1(C(=O)N[C@@H](CCC(N)=O)C(O)C(F)(F)F)CCC1 (single isomer, unassigned) [Example 66] | 92% | –
3 | CC(C)[C@H](NC(=O)c1ccc(-c2ccccc2)cc1)C(=O)N[C@@H](Cc1ccccc1)C(=O)N[C@@H](C)C(=O)NC(CCC(N)=O)C(O)C(F)(F)F (stereo partly drawn) [Example 24, N-((2S)-1-(((2S)-1-(((2S)-1-((6-Amino-1,1,1-trifluoro-2-hydroxy-6-oxohexan-3-yl)amino)-1-oxopropan-2-yl)amino)-1-oxo-3-phenylpropan-2-yl)amino)-3-methyl-1-oxobutan-2-yl)-[1,1′-biphenyl]-4-carboxamide] | 88% | –
4 | CC(C)[C@H](NC(=O)c1ccc(C2(C(F)(F)F)N=N2)cc1)C(=O)N[C@@H](Cc1ccccc1)C(=O)N[C@@H](C)C(=O)NC(CCC(N)=O)C(O)C(F)(F)F (stereo partly drawn) [Example 29, N-((2S)-1-(((2S)-1-(((2S)-1-((6-Amino-1,1,1-trifluoro-2-hydroxy-6-oxohexan-3-yl)amino)-1-oxopropan-2-yl)amino)-1-oxo-3-phenylpropan-2-yl)amino)-3-methyl-1-oxobutan-2-yl)-4-(3-(trifluoromethyl)-3H-diazirin-3-yl)benzamide] | 83% | 88 % DMSO Cnt
5 | CC(C)[C@H](NC(=O)c1ccc(-c2ccc(F)cc2)cc1)C(=O)N[C@@H](Cc1ccccc1)C(=O)N[C@@H](C)C(=O)NC(CCC(N)=O)C(O)C(F)(F)F (stereo partly drawn) [Example 52, N-((2S)-1-(((2S)-1-(((2S)-1-((6-Amino-1,1,1-trifluoro-2-hydroxy-6-oxohexan-3-yl)amino)-1-oxopropan-2-yl)amino)-1-oxo-3-phenylpropan-2-yl)amino)-3-methyl-1-oxobutan-2-yl)-4′-fluoro-[1,1′-biphenyl]-4-carboxamide] | 79% | –
6 | CCCCCCCCCC(=O)N[C@H](C(=O)N[C@@H](Cc1ccccc1)C(=O)N[C@H](C(=O)NC(CCC(N)=O)C(O)C(F)(F)F)C(C)C)C(C)C (stereo partly drawn) [Example 58, N-((2S)-1-(((2S)-1-(((2S)-1-((6-amino-1,1,1-trifluoro-2-hydroxy-6-oxohexan-3-yl)amino)-3-methyl-1-oxobutan-2-yl)amino)-1-oxo-3-phenylpropan-2-yl)amino)-3-methyl-1-oxobutan-2-yl)decanamide] | 81% | 93 % DMSO Cnt
7 | CCCCCCCCCC(=O)N[C@H](C(=O)N[C@@H](Cc1ccccc1)C(=O)N[C@@H](Cc1ccccc1)C(=O)NC(CCC(N)=O)C(O)C(F)(F)F)C(C)C (stereo partly drawn) [Example 59, N-((2S)-1-(((2S)-1-(((2S)-1-((6-Amino-1,1,1-trifluoro-2-hydroxy-6-oxohexan-3-yl)amino)-1-oxo-3-phenylpropan-2-yl)amino)-1-oxo-3-phenylpropan-2-yl)amino)-3-methyl-1-oxobutan-2-yl)decanamide] | 82% | 83 % DMSO Cnt
8 | CC(C)[C@H](NC(=O)c1ccc(-c2ccccc2)cc1)C(=O)N[C@H](Cc1ccccc1)C(=O)N[C@@H](C)C(=O)NC(CCC(N)=O)C(O)C(F)(F)F (stereo partly drawn) [Example 70, N-((2S)-1-(((2R)-1-(((2S)-1-((6-Amino-1,1,1-trifluoro-2-hydroxy-6-oxohexan-3-yl)amino)-1-oxopropan-2-yl)amino)-1-oxo-3-phenylpropan-2-yl)amino)-3-methyl-1-oxobutan-2-yl)-[1,1′-biphenyl]-4-carboxamide] | 74% | –
9 | CSCC[C@H](NC(=O)c1ccc(-c2ccccc2)cc1)C(=O)N[C@@H](Cc1ccccc1)C(=O)N[C@@H](C)C(=O)NC(CCC(N)=O)C(O)C(F)(F)F (stereo partly drawn) [Example 75, N-((5S,8S,11S)-17-amino-8-benzyl-11-methyl-6,9,12,17-tetraoxo-14-(2,2,2-trifluoro-1-hydroxyethyl)-2-thia-7,10,13-triazaheptadecan-5-yl)-[1,1′-biphenyl]-4-carboxamide] | 100% | –
